Experimental data taken from PubChem BioAssay AID248 (DTP/NCI, 2004).
Several values for one entry are separate records, joined by “and”; a condition that tells them apart may be missing. Identical values can stand only once. Inconclusive results and toxic doses are left out. Cut-off read from the data, not from the text of the source: active = T/C of 150% or more; inactive = T/C below 125%.

System: L1210 leukemia ip in BDF1 mice, survival T/C
Assay: NCI In Vivo Anticancer Drug Screen. Data for tumor model L1210 Leukemia (intraperitoneal) in B6D2F1 (BDF1) mice
Conditions: endpoint: mean survival time, higher = longer survival
Summary of the method: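 Each compound was tested against a transplantable tumor grown in mice. The endpoint was survival, with treated animals benchmarked against vehicle controls as a simple ratio.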

[1] = dose: 100.0 mg/kg/injection, schedule: Q04DX003 (ip), vehicle: saline
[2] = dose: 200.0 mg/kg/injection, schedule: Q04DX003 (ip), vehicle: saline
[3] = dose: 100.0 mg/kg/injection, schedule: Q04DX003 (ip), vehicle: saline with Tween-80
[4] = dose: 200.0 mg/kg/injection, schedule: Q04DX003 (ip), vehicle: saline with Tween-80
[5] = dose: 100.0 mg/kg/injection, schedule: Q01DX009 (ip), vehicle: saline with Tween-80
[6] = dose: 200.0 mg/kg/injection, schedule: Q01DX009 (ip), vehicle: saline with Tween-80

Measured: T/C

C[n+]1ccc(/C=C/c2c(Cl)cccc2Cl)c2ccccc21
inactive: dose: 3.13 mg/kg/injection, schedule: Q04DX003 (ip), vehicle: Klucel (hydroxypropylcellulose) (HPC) 94 % of control | dose: 6.25 mg/kg/injection, schedule: Q04DX003 (ip), vehicle: Klucel (hydroxypropylcellulose) (HPC) 98 % of control | dose: 12.5 mg/kg/injection, schedule: Q04DX003 (ip), vehicle: Klucel (hydroxypropylcellulose) (HPC) 93 % of control

Cc1ccc(C)c2c1CC(C(=O)O)CC2C (centres undefined)
inactive: [1] 93 % of control | [2] 110 % of control

CC(C)C(CCCC(=O)O)C(=O)O (centres undefined)
inactive: dose: 50.0 mg/kg/injection, schedule: Q01DX001 (ip), vehicle: carboxymethylcellulose (CMC) 96 % of control | dose: 100.0 mg/kg/injection, schedule: Q01DX001 (ip), vehicle: carboxymethylcellulose (CMC) 96 % of control | dose: 200.0 mg/kg/injection, schedule: Q01DX001 (ip), vehicle: carboxymethylcellulose (CMC) 96 % of control

CCCCCCCOC(CN)C(Cl)(Cl)Cl (centres undefined)
inactive: dose: 12.5 mg/kg/injection, schedule: Q01DX001 (ip), vehicle: saline with Tween-80 104 % of control | dose: 12.5 mg/kg/injection, schedule: Q01DX009 (ip), vehicle: saline with Tween-80 100 % of control and 104 % of control | dose: 25.0 mg/kg/injection, schedule: Q01DX001 (ip), vehicle: saline with Tween-80 100 % of control | dose: 25.0 mg/kg/injection, schedule: Q01DX009 (ip), vehicle: saline with Tween-80 97 % of control and 91 % of control | dose: 25.0 mg/kg/injection, schedule: Q04DX002 (ip), vehicle: saline with Tween-80 103 % of control and 108 % of control | dose: 50.0 mg/kg/injection, schedule: Q01DX001 (ip), vehicle: saline with Tween-80 94 % of control | dose: 50.0 mg/kg/injection, schedule: Q04DX002 (ip), vehicle: saline with Tween-80 103 % of control and 105 % of control

C=C=CCCCC
inactive: dose: 75.0 mg/kg/injection, schedule: Q01DX001 (ip), vehicle: saline 101 % of control | dose: 75.0 mg/kg/injection, schedule: Q04DX003 (ip), vehicle: saline 112 % of control | dose: 150.0 mg/kg/injection, schedule: Q01DX001 (ip), vehicle: saline 111 % of control | dose: 150.0 mg/kg/injection, schedule: Q04DX003 (ip), vehicle: saline 104 % of control | dose: 300.0 mg/kg/injection, schedule: Q01DX001 (ip), vehicle: saline 102 % of control | dose: 300.0 mg/kg/injection, schedule: Q04DX003 (ip), vehicle: saline 101 % of control

CC1(C)CC2(C)CC(=O)C1C(C(=O)O)C2C(=O)O (centres undefined)
inactive: dose: 100.0 mg/kg/injection, schedule: Q01DX001 (ip), vehicle: saline 98 % of control | dose: 100.0 mg/kg/injection, schedule: Q01DX009 (ip), vehicle: saline 93 % of control | [1] 96 % of control | dose: 200.0 mg/kg/injection, schedule: Q01DX001 (ip), vehicle: saline 90 % of control | dose: 200.0 mg/kg/injection, schedule: Q01DX009 (ip), vehicle: saline 93 % of control | [2] 91 % of control | dose: 400.0 mg/kg/injection, schedule: Q01DX001 (ip), vehicle: saline 91 % of control | dose: 400.0 mg/kg/injection, schedule: Q01DX009 (ip), vehicle: saline 92 % of control | dose: 400.0 mg/kg/injection, schedule: Q04DX003 (ip), vehicle: saline 89 % of control

O=C(O)/C=C/C(=O)NNC(=O)/C=C/C(=O)O
inactive: [3] 98 % of control | [4] 98 % of control

Nc1ccc(N=Nc2cc(Cl)ccc2Cl)c(N)n1
inactive: dose: 50.0 mg/kg/injection, schedule: Q01DX001 (ip), vehicle: other 103 % of control | dose: 100.0 mg/kg/injection, schedule: Q01DX001 (ip), vehicle: other 86 % of control | dose: 200.0 mg/kg/injection, schedule: Q01DX001 (ip), vehicle: other 92 % of control | dose: 400.0 mg/kg/injection, schedule: Q01DX001 (ip), vehicle: other 92 % of control

CCCCCCCCc1ccc(O)c(Cl)c1
inactive: [5] 95 % of control | [6] 96 % of control

CCOc1ccc(NC(=S)NC(=O)c2cccc([N+](=O)[O-])c2)cc1
inactive: dose: 100.0 mg/kg/injection, schedule: Q01DX001 (ip), vehicle: saline with Tween-80 93 % of control | [5] 92 % of control and 95 % of control | dose: 100.0 mg/kg/injection, schedule: Q04DX002 (ip), vehicle: saline with Tween-80 93 % of control and 95 % of control | [3] 98 % of control | dose: 200.0 mg/kg/injection, schedule: Q01DX001 (ip), vehicle: saline with Tween-80 101 % of control | [6] 92 % of control and 98 % of control | dose: 200.0 mg/kg/injection, schedule: Q04DX002 (ip), vehicle: saline with Tween-80 97 % of control and 107 % of control | [4] 96 % of control | dose: 400.0 mg/kg/injection, schedule: Q01DX001 (ip), vehicle: saline with Tween-80 102 % of control | dose: 400.0 mg/kg/injection, schedule: Q01DX009 (ip), vehicle: saline with Tween-80 97 % of control and 106 % of control | dose: 400.0 mg/kg/injection, schedule: Q04DX002 (ip), vehicle: saline with Tween-80 104 % of control and 107 % of control | dose: 400.0 mg/kg/injection, schedule: Q04DX003 (ip), vehicle: saline with Tween-80 91 % of control

CC(=O)c1cccc(NC(=O)Nc2cccc(O)c2)c1
inactive: dose: 100.0 mg/kg/injection, schedule: Q01DX009 (ip), vehicle: Klucel (hydroxypropylcellulose) (HPC) 101 % of control | dose: 200.0 mg/kg/injection, schedule: Q01DX009 (ip), vehicle: Klucel (hydroxypropylcellulose) (HPC) 97 % of control | dose: 400.0 mg/kg/injection, schedule: Q01DX009 (ip), vehicle: Klucel (hydroxypropylcellulose) (HPC) 101 % of control

OCC(O)C(O)C(OC1OC(CO)C(O)C(O)C1O)C(O)CO (centres undefined)
inactive: dose: 100.0 mg/kg/injection, schedule: Q01DX001 (ip), vehicle: Klucel (hydroxypropylcellulose) (HPC) 99 % of control | dose: 200.0 mg/kg/injection, schedule: Q01DX001 (ip), vehicle: Klucel (hydroxypropylcellulose) (HPC) 89 % of control | dose: 400.0 mg/kg/injection, schedule: Q01DX001 (ip), vehicle: Klucel (hydroxypropylcellulose) (HPC) 99 % of control

C=CCOC1C=CC=CC=C1
inactive: dose: 25.0 mg/kg/injection, schedule: Q01DX009 (ip), vehicle: Klucel (hydroxypropylcellulose) (HPC) 100 % of control | dose: 50.0 mg/kg/injection, schedule: Q01DX009 (ip), vehicle: Klucel (hydroxypropylcellulose) (HPC) 100 % of control | dose: 100.0 mg/kg/injection, schedule: Q04DX003 (ip), vehicle: Klucel (hydroxypropylcellulose) (HPC) 94 % of control
